# Reference: US11958842B2, “Substituted phenazines and methods of treating cancer and bacterial diseases” (Adjutec Pharma AS, priority 2016, dated 2024)
# Where two headings read alike, the source gives them in different places.
# Legend:
# Type in all cases: cell-based
# Molm13 cells = test: Anti-AML activity, WST-1 viability (Example 72); conditions: Homo sapiens, Molm 13 cells, WST-1
# How it was run: (§1)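 Rat IPC-81 cells in DMEM with 10% horse serum and Molm13 cells in RPMI with 10% FBS, seeded at 150 000 cells/ml with compound dilution series. After 22 h exposure, WST-1 added for a further 2 h; absorbance read at 450 nm (620 nm reference) as viability.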
# IPC-81 rat AML cells = test: Anti-AML activity, WST-1 viability (Example 72); conditions: IPC81, IPC-81 cells
# How it was run: as §1
# hepG2 = test: Cytotoxicity (Example 73, Table 2); conditions: Homo sapiens; hepG2, 24 hours of incubation; read-out: EC50 (μM) hepG2
# [1] = tested on: vancomycin-resistant E. faecium vanA A1-22; test: Microbroth dilution MIC; conditions: compound alone
# Procedure: (§2) Day 1: • Plate bacterial strain(s) on appropriate media: • Gram-negative bacteria with ESBLs or carbapenemases: green agar plates with 100 mg/L ampicillin • Gram-negative bacteria without β-lactamases: green agar plates • Gram-positive bacteria (Staphylococci and Enterococci): blood agar plates • Incubate o.n. at 37° C.
# (§3) Prepare the Bacterial Inoculum: • Prepare a 0.5 McFarland suspension of bacteria in 0.85% NaCl. (Should be used within 15 min of preparation). • Dilute the 0.5 McFarland suspension 1:100 into MH broth.
# (§4) Check the inoculum by diluting the prepared bacterial suspension 1:100 (10 μl bacterial suspension+990 μl 0.85% NaCl). Plate 10 μl of the dilution on MH agar plates (×2). Incubate o.n. at 37° C., count the colonies and calculate the final CFU/ml inoculum in the plate by multiplying the average number of colonies with 10000 and divide by 2. The final inoculum should be between 3-7×10^5 CFU/ml. • Add 50 μl of the prepared bacterial suspension to each well in the microtiter plate except negative growth control.
# (§5) Preparation of Compounds/Antibiotics • Calculate the desired concentration-range and volume of the compounds/antibiotics in the assay. For antibiotics this will depend on the MIC to meropenem of the bacterial strains to be tested. Dilute the stock solution in MH broth. Make subsequent 2-fold dilutions in MH broth of the desired concentrations if a concentration range is to be tested (remember the extra dilution factor in the assay plate). Always include extra volume for pipetting. Take into consideration stock solutions that are made in buffers that have an effect on bacterial growth (e.g. DMSO).
# (§6) This experimental design was used for the results in Tables 4 and 5 below. In Table 4, inhibitor concentration dependency on the MIC of meropenem was studied.
# [2] = tested on: methicillin-resistant S. aureus MRSA A4-37; test: Microbroth dilution MIC; conditions: compound alone
# Procedure: as §2, §3, §4, §5, §6
# [3] = tested on: rat cardiomyoblast (H9c2) cells; test: Cytotoxicity, WST-1 and nuclear morphology (Example 73); conditions: Rattus norvegicus; H9c2, 19% O2, 24 hours of incubation; read-out: EC50 (μM) H9c2 19% O2
# How it was run: (§7)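 MOLM-13 (RPMI/FBS), NRK and H9c2 (DMEM/10% FBS) cells under 2% or 20% O2 at 37° C were exposed to analogues for 24 h (≤1% DMSO). Viability was read by WST-1, and cell death by Hoechst 33342 nuclear morphology; EC50 came from four-parameter regression.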
# [4] = tested on: normal rat kidney epithelial (NRK) cells; test: as above; conditions: Rattus norvegicus
# How it was run: as §7
smiles,measurement,setting,value
"COc1cccc2c1[n+]([O-])c1cccc(O)c1[n+]2O [Example 5a, 1-hydroxy-6-methoxyphenazine 5.10-dioxide, reference compound]",IC50,"Molm13 cells; 2% O2, 24 h of incubation, read-out: Molm 13 IC50 2% O2",1.1 µM
same,IC50,"Molm13 cells; 20% O2, 24 h of incubation, read-out: Molm 13 IC50 20% O2",1.4 µM
same,IC50,"IPC-81 rat AML cells; 2% O2, 24 h of incubation, WST-1, read-out: IPC-81 IC50 2% O2",3.2 µM
same,IC50,"IPC-81 rat AML cells; 20% O2, 24 h of incubation, WST-1, read-out: IPC-81 IC50 20% O2",2.4 µM
same,EC50,hepG2,70 µM
same,MIC A1-22 E. faecium vanA,[1],< 8 µg/mL
same,MIC A4-37 S. aureus MRSA,[2],< 0.5 µg/mL
same,EC50,[3],46 ± 4.1 µM
same,EC50,"[4]; 2% O2, 24 hours of incubation, read-out: EC50 (μM) NRK 2% O2",76 ± 14 µM
same,EC50,"[4]; 19% O2, 24 hours of incubation, read-out: EC50 (μM) NRK 19% O2",77 ± 11 µM
